Test results from patent publication US11319318B2, “Pyridinones and isoquinolinones as inhibitors of the bromodomain BRD9” (Boehringer Ingelheim International GmbH, priority 2015, dated 2022).

target: T1, bromodomain of BRD9 (GST-BRD9 aa 130-259) / H3 K9/14/18/23Ac(1-28) peptide (Homo sapiens, UniProt Q9H8M2); experiment: BRD9-H3 tetra-acetylated Peptide Inhibition AlphaScreen; assay type: binding
T1 construct: The protein corresponding to amino acids 130-259 that contains the bromodomain of BRD9; made in house; host or cells: E. coli
T1 sequence (Q9H8M2 130-259): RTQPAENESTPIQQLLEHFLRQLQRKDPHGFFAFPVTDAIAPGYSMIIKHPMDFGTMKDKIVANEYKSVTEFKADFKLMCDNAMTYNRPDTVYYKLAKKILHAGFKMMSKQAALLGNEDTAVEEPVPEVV

Row | IC50 [nM] | Structure (SMILES)
1 | 1320 | Cc1cc(-c2ccc(C(=O)N3CCN(C)CC3)c(OC(F)(F)F)c2)cn(C)c1=O [Compound I-177, 1,3-Dimethyl-5-[4-(4-methyl-piperazine-1-carbonyl)-3-trifluoromethoxy-phenyl]-1H-pyridin-2-one]
2 | 143 | Cc1cc(-c2cc(C)c(=O)n(C)c2)ccc1C1(N(C)C)CC1 [Compound I-60]
3 | 851 | Cc1cc(-c2cc(C)c(=O)n(C)c2C)ccc1C1(N2CCN(C)CC2)CC1 [Compound I-135]
4 | 197 | COc1cc(S(=O)(=O)N(C)CCN(C)C)c(OC)cc1-c1cn(C)c(=O)c(C)c1C [Compound I-110]
5 | 160 | Cc1cc(-c2ccc(CN3CCNCC3)c(N(C)C)c2)cn(C)c1=O [Compound I-149, 5-(3-Dimethylamino-4-piperazin-1-ylmethyl-phenyl)-1,3-dimethyl-1H-pyridin-2-one]
6 | 391 | CN1CCN(C(=O)c2ccc(-c3cn(C)c(=O)c4[nH]ccc34)cc2)CC1 [III-9]
7 | 9200 | Cc1cc(-c2ccc(N3CCOCC3)cc2)c(C)n(C)c1=O [Compound I-215]
8 | 1400 | Cn1cc(-c2ccc(C(N)=O)cc2)c2ccncc2c1=O [II-9]
9 | 74 | COc1cc(-c2cc(C)c(=O)n(C)c2)ccc1CN1CC(OC)C1 [Compound I-50]
10 | 1010 | C[C@H](N)c1ccc(-c2cn(C)c(=O)c3ccccc23)cc1 [II-46]
11 | 187 | Cc1cc(-c2ccc(CN3CC(O)C3)cc2)cn(C)c1=O [Compound I-179, 5-[4-(3-Hydroxy-azetidin-1-ylmethyl)-phenyl]-1,3-dimethyl-1H-pyridin-2-one]
12 | 31 | COc1cc(-c2cn(C)c(=O)c3ccc(Cn4cccn4)cc23)cc(OC)c1CN(C)C [II-19]
13 | 167 | Cc1cc(-c2ccc3c(c2)CNC3)c(C)n(C)c1=O [Compound I-126]
14 | 2140 | COc1cc(-c2cn(C)c(=O)c3ncccc23)c(OC)cc1CN(C)C [II-22]
15 | 468 | CCOc1cc(-c2cc(C)c(=O)n(C)c2)ccc1CN1CCN(C)CC1 [Compound I-197, 5-[3-Ethoxy-4-(4-methyl-piperazin-1-ylmethyl)-phenyl]-1,3-dimethyl-1H-pyridin-2-one]
16 | 589 | Cn1cc(-c2ccc(C(=O)N3CCNCC3)cc2)c2ncncc2c1=O [II-13]
17 | 880 | Cc1cc(-c2ccc(CN)cc2)c(C)n(C)c1=O [Compound I-140]
18 | 157 | Cc1cc(-c2ccc([C@H](C)N3CCCCC3)cc2)cn(C)c1=O [Compound I-3]
19 | 132 | COc1cc(S(=O)(=O)NCCN(C)C)c(OC)cc1-c1cc(C)c(=O)n(C)c1 [Compound I-57]
20 | 172 | Cc1cc(-c2ccc([C@@H](C)N3CCCCC3)cc2)cn(C)c1=O [Compound I-4]
21 | 777 | COc1cc(-c2cc(C)c(=O)n(C)c2)ccc1CN1CCN(C)C(C)C1 (centres unmarked) [Compound I-86]
22 | 126 | COc1cc(S(=O)(=O)N2CCNCC2)c(OC)cc1-c1cc(C)c(=O)n(C)c1 [Compound I-147]
23 | 1690 | Cc1cc(-c2ccc(CN3CCN(C)CC3)cc2)c(C)n(C)c1=O [Compound I-21]
24 | 65 | Cc1cc(-c2ccc3c(c2)CNC3)cn(C)c1=O [Compound I-49, 5-(2,3-dihydro-1H-isoindol-5-yl)-1,3-dimethyl-1H-pyridin-2-one]
25 | 37 | COc1cc(-c2cn(C)c(=O)c(C)c2C)cc(OC)c1CN1CC(O)C1 [Compound I-103]
26 | 198 | COc1cc(-c2cc(C)c(=O)n(C)c2C)ccc1CN1C[C@@H]2CC1CN2 [Compound I-127]

Row | IC50 [nM] | Structure (SMILES)
27 | 69 | COc1cc(-c2cc(C)c(=O)n(C)c2)cc(OC)c1CNC1CN(C)C1 [Compound I-205, 5-{3,5-Dimethoxy-4-[(1-methyl-azetidin-3-ylamino)-methyl]-phenyl}-1,3-dimethyl-1H-pyridin-2-one]
28 | 144 | COc1cc(-c2cc(C)c(=O)n(C)c2C)cc(OC)c1CN1CCNCC1 [Compound I-124]
29 | 39 | COc1cc(-c2cn(C)c(=O)c3[nH]ccc23)ccc1CN1C[C@H]2C[C@@H]1CN2C [III-2, 4-[3-Methoxy-4-((1R,4R)-5-methyl-2,5-diaza-bicyclo[2.2.1]hept-2-ylmethyl)-phenyl]-6-methyl-1,6-dihydro-pyrrolo[2,3-c]pyridin-7-one]
30 | 40 | COc1cc(-c2cc(I)c(=O)n(C)c2C)cc(OC)c1CN(C)C [Compound I-168]
31 | 137 | Cc1cc(-c2ccc(C3(N(C)C)CC3)cc2)cn(C)c1=O [Compound I-58]
32 | 226 | COc1cc(-c2cn(C)c(=O)c(C)c2C)ccc1C1(N2CCN(C)CC2)CC1 [Compound I-111]
33 | 105 | Cc1cc(-c2ccc([C@@H](C)N3CCCC3)cc2)cn(C)c1=O [Compound I-1, 1,3-Dimethyl-5-[4-((R)-1-pyrrolidin-1-yl-ethyl)-phenyl]-1H-pyridin-2-one]
34 | 93 | COc1cc(-c2cc(C)c(=O)n(C)c2)cc(OC)c1CN(C)C1CNC1 [Compound I-207, 5-{4-[(Azetidin-3-yl-methyl-amino)-methyl]-3,5-dimethoxy-phenyl}-1,3-dimethyl-1H-pyridin-2-one]
35 | 55 | COc1cc(-c2cc(C)c(=O)n(C)c2)ccc1CN1CCN(Cc2ccc3nc[nH]c3c2)CC1 [Compound I-199]
36 | 137 | COCc1c(OC)cc(-c2cn(C)c(=O)c(C)c2C)cc1OC [Compound I-107]
37 | 1960 | Cc1cc(-c2ccc([C@H](C)N)cc2)c(C)n(C)c1=O [Compound I-142]
38 | 11 | COc1cc(-c2cn(C)c(=O)c3cnccc23)cc(OC)c1CN1CC(N)C1 [II-31]
39 | 1050 | Cc1cc(-c2ccc(CN3CCCCC3)cc2)cn(C)c1=O [Compound I-182]
40 | 131 | COc1cc(S(=O)(=O)N2CC(O)C2)c(OC)cc1-c1cc(C)c(=O)n(C)c1 [Compound I-56]
41 | 52 | COc1cc(-c2cc(C)c(=O)n(C)c2)ccc1CN1CC(O)C1 [Compound I-47, 5-[4-(3-Hydroxy-azetidin-1-ylmethyl)-3-methoxy-phenyl]-1,3-dimethyl-1H-pyridin-2-one]
42 | 302 | Cc1cc(-c2ccc3c(c2)CCN(C)C3)cn(C)c1=O [Compound I-210]
43 | 1010 | Cc1cc(-c2ccc(CN3CCN(C)CC3)c(OC(C)C)c2)cn(C)c1=O [Compound I-196]
44 | 24 | COc1cc(-c2cn(C)c(=O)c3cnccc23)cc(OC)c1CNC1CNC1 [II-32]
45 | 39 | COc1cc(-c2cn(C)c(=O)c(C)c2C)c(OC)cc1CN1CC(O)C1 [Compound I-104]
46 | 1210 | Cc1cc(-c2ccc(C3(N4CCN(C)CC4)CC3)cc2)cn(C)c1=O [Compound I-95]
47 | 1320 | Cc1cc(-c2ccc(CN3CC4CCC3C4)cc2)cn(C)c1=O (centres unmarked) [Compound I-184]
48 | 394 | COc1cc(-c2cc(C)c(=O)n(C)c2C)ccc1CN1CC(OC)C1 [Compound I-134]
49 | 335 | COc1cc(-c2cc(C)c(=O)n(C)c2)ccc1CN1C[C@H]2C[C@@H]1CN2C [Compound I-72]
50 | 393 | Cc1cc(-c2cc(C)c(=O)n(C)c2)ccc1S(=O)(=O)N1CC(O)C1 [Compound I-75]
51 | 708 | Cc1cc(-c2ccc3c(c2)CCNC3)cn(C)c1=O [Compound I-85]

target: T2, bromodomain of BRD9 (GST fusion) / acetylated histone H4 peptide (BET Bromodomain Ligand) (Homo sapiens, UniProt Q9H8M2); experiment: BRD9-H4 Tetraacetylated Peptide Inhibition AlphaScreen; assay type: binding
T2 construct: A GST fusion protein of the bromodomain of BRD9; purchased BPS Biosciences #32519
T2 sequence (Q9H8M2 136-240 limits assumed): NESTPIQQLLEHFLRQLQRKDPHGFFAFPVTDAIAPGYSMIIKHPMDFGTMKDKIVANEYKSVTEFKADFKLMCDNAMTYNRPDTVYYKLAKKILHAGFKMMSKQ
Source text: BRD9-H4 Tetraacetylated Peptide Inhibition AlphaScreen
This assay is used to identify compounds which inhibit the interaction of the bromodomain of BRD9 with a tetra-acetylated peptide based on the sequence of histone H4 (termed the “BET Bromodomain ligand” as purchased from BPS Biosciences).
A GST fusion protein of the bromodomain of BRD9 and an acetylated histone H4 peptide (the “BET Bromodomain Ligand” are purchased as part of the BRD9 Inhibitor Screening Assay Kit at BPS Biosciences (Cat. Number: #32519)
AlphaScreen Beads (Perkin Elmer):
AlphaLISA Glutathione Acceptor Beads
AlphaScreen Streptavidin Donor Beads
Assay plates: Proxiplate-384 PLUS, white (PerkinElmer)
The assay is done in a darkened room below 100 Lux.
Compounds are dispensed onto assay plates using an Access Labcyte Workstation with the Labcyte Echo 550 from a DMSO solution. For the chosen highest concentration of 100 μM, 150 nl of compound solution are transferred from a 10 mM DMSO solution. A series of 11 concentrations is transferred for each compound at which each concentration is five-fold lower than the previous one (i.e. 100 μM, 20 μM, 4 μM, 0.8 μM, etc). DMSO is added such that every well has a total of 150 nl of DMSO.
15 μl of the resulting mix are added to the assay plates that contain 150 nl of the compounds. After 60 min at room temperature the signal is measured in a PerkinElmer Envision HTS Multilabel Reader using the AlphaScreen specifications from PerkinElmer.
Each plate contains negative controls where biotinylated BET Bromodomain Ligand and GST-BRD9 are left out and replaced by assay buffer. Negative control values are entered as low basis value when using the software GraphPad Prism for calculations.

Row | IC50 [nM] | Structure (SMILES)
52 | 239 | Cc1ccc(-c2cn(C)c(=O)c3ccccc23)cc1NS(C)(=O)=O [II-29]
53 | 22 | Cc1cc(-c2cc(C)c(=O)n(C)c2)ccc1CN1CCNCC1 [Compound I-33, 1,3-Dimethyl-5-(3-methyl-4-piperazin-1-ylmethyl-phenyl)-1H-pyridin-2-one]
54 | 50 | Cc1cc(-c2ccc(C(=O)c3c(Cl)ncnc3Cl)cc2)cn(C)c1=O [Compound I-100]
55 | 5120 | Cc1ccc(-c2cc(C)c(=O)n(C3CC3)c2)cc1NS(C)(=O)=O [Compound I-28]
56 | 293 | CCS(=O)(=O)Nc1cc(-c2cn(C)c(=O)c3ccccc23)ccc1C [II-35, Ethanesulfonic acid [2-methyl-5-(2-methyl-1-oxo-1,2-dihydro-isoquinolin-4-yl)-phenyl]-amide]
57 | 270 | Cc1cc(-c2ccc(C(=O)N3CCN(C)CC3)c(O)c2)cn(C)c1=O [Compound I-188, 5-[3-Hydroxy-4-(4-methyl-piperazine-1-carbonyl)-phenyl]-1,3-dimethyl-1H-pyridin-2-one]

Row | Structure (SMILES) | IC50 [nM]
58 | Cc1cc(-c2cc(C)c(=O)n(C)c2)ccc1CN1CCN(C)CC1 [Compound I-34] | 17
59 | Cc1cc(-c2ccc(CN3CCNCC3)cc2)cn(C)c1=O [Compound I-79] | 60
